Experiment: Inhibition of NADH-ubiquinone oxidoreductase activity in bovine heart submitochondrial particles
Set-up: species or system Bos taurus

Row | IC50 | SMILES
1 | 690 nM | CCCCCCCCCCCCCCCC[C@@H](O)[C@H](O)CCCCCCCCCCCCCCC1=C[C@H](C)OC1=O [TONKINELIN]
2 | 580 nM | CCCCCCCCCCCCCCCC[C@H](O)[C@@H](O)CCCCCCCCCCCCCCC1=C[C@H](C)OC1=O
3 | 20 nM | CCCCCCCCCCCC[C@H](O)[C@@H](O)CC[C@@H](O)[C@H](O)CCCCCCCCCCCCC1=C[C@H](C)OC1=O [DIHYDROXY-COHIBIN A]

Row | SMILES | IC50
4 | CCCCCCCCCC[C@@H](O)[C@@H]1CC[C@@H]([C@@H]2CC[C@@H]([C@H](O)CCCCCCCCCC(O)CC3=CC(C)OC3=O)O2)O1 (stereo not given in full) [BULLATACIN] | 0.83 nM
5 | CCCCCCCCCCCC[C@H](O)[C@@H]1CC[C@H]([C@H](O)CCCCCCCCCCCCC2=C[C@H](C)OC2=O)O1 [CIS-SOLAMIN] | 2.6 nM
